{"source": "patent US6534311B2", "about": "“Drosophila melanogaster p70S6 kinase” (Novartis AG, priority 1996, dated 2003)", "key": {"[1]": {"system": "S6 kinase activity in S2 cells", "type": "cell-based, Drosophila", "settings": "S2 cells treated with 100 μM cycloheximide for two hours", "description": "(§1) Cell extracts are prepared and Drosophila p70^S6K activity is measured as previously described (28) or following immunoprecipitation (Lane, H. A., et al. (1992) EMBO J 11, 1743-1749) with the D20 antibody (2.5 μg).\nS2 cells are plated at 5×10^7 cells per 15 cm dish in Schneider's medium supplemented with antibiotic and 10% foetal calf serum. After 24 h, cells are changed to Schneider's medium without serum and after an additional 36 h, 5 plates of cells are treated with 100 μM cycloheximide for two hours with or without pretreatment with […] rapamycin for 15 min. Cell extracts are prepared by dounce homogenisation in Extraction buffer lacking PNPP as described in Reinhard et al., above. Briefly, each extract is centrifuged for 30 min at 3×105 g, filtered through a 0.2 μm membrane (Millipore), and applied at a flow rate of 0.5ml per min to a 1 ml Mono Q column (Pharmacia) equilibrated in Buffer F (Kozma, S.C., et al. (1989) EMBO J 8, 4125-4132). The column is washed with 10 ml of Buffer F, developed at 0.5 ml per min with a 30 ml gradient from 0-0.5M NaCl in the same buffer, and each fraction is diluted 20-fold and assayed for kinase activity. Factions 16-19 are concentrated on 100 μl of FFQ Sepharose and eluted with 300 μl of 0.5M NaCl in Buffer F. […]"}, "[2]": {"system": "Drosophila p70S6K", "assay": "S6 kinase activity immunoprecipitated with D20 antibody from concentrated Mono Q fractions", "type": "cell-based, Drosophila melanogaster", "settings": "cycloheximide-treated S2 cells, D20 immunoprecipitate and Western blot mobility", "description": "as §1\nS2 cells are plated at 5×10^7 cells per 15 cm dish in Schneider's medium supplemented with antibiotic and 10% foetal calf serum. After 24 h, cells are changed to Schneider's medium without serum and after an additional 36 h, 5 plates of cells are treated with 100 μM cycloheximide for two hours with or without pretreatment with […] rapamycin for 15 min. Cell extracts are prepared by dounce homogenisation in Extraction buffer lacking PNPP as described in Reinhard et al., above. […]\nTo distinguish between these rapamycin sensitive and insensitive S6 kinase activities and to determine whether either represented Drosophila p70^S6K, extracts from cycloheximide-stimulated S2 cells, pretreated with or without rapamycin, are fractionated by Mono Q chromatography. The fractions eluted from the Mono Q column are monitored by A280 and subjected to an in vitro S6 kinase assay. […] The concentrated samples from cells treated with cycloheximide either in the absence or presence of rapamycin pretreatment, are either immunoprecipitated and assayed for S6 kinase activity or analysed on Western blots employing the D20 antibody. […]"}}, "data": [{"smiles": "C[C@@H]1C[C@@H]([C@H](O)CC2CC(=O)NC(=O)C2)C(=O)[C@@H](C)C1", "note": "[cycloheximide]", "values": [{"measurement": "increase of S6 kinase activity over basal levels", "setting": "[1]", "result": 2.2, "unit": "fold"}, {"measurement": "activation of Drosophila p70S6K", "setting": "[2]", "result": "induces the activation"}]}]}
